The values that follow are results of earlier work, collected in US20070015686A1, “Dietary supplement for enhancing skeletal muscle mass, decreasing muscle protein degradation, downregulation of muscle catabolism pathways, and decreasing catabolism of muscle cells” (priority 2005, published 2007).

Molecules are shown by their SMILES.

The conditions of series [1]: ingestion of a concomitant carbohydrate.
In series [2] the target is T1, chymotrypsin-like activity of the proteasome complex (Homo sapiens, UniProt P28074).
T1 sequence (P28074 60-263): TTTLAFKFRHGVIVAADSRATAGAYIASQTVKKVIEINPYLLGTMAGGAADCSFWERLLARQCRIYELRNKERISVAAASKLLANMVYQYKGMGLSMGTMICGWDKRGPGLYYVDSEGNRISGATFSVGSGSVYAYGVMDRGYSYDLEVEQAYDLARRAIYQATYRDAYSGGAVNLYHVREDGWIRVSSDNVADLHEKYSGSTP
The settings on record: in vitro and in vivo; concentrations found in the serum of green tea drinkers.

The conditions of series [3]: laboratory tests; greater than vitamin C and vitamin E.
For series [4], the system named is NF-κβ. The settings on record: following administration, during inflammation and infection.
The subject of series [5] is pancreatic β-cells.

Consider `CN(CC(=O)O)C(=N)N` [Creatine, N-methyl-N-guanyl Glycine], for which the “Creatine retention, increased efficiency” value in series [1] is given as “up to 60%”.
With `O=C(O[C@@H]1Cc2c(O)cc(O)cc2O[C@@H]1c1ccc(O)c(O)c1)c1cc(O)c(O)c(O)c1` [ECG, epicatechin gallate], the “inhibition of the chymotrypsin-like activity of the proteasome complex” value (“inhibition” below) in series [2] was “potent specific inhibitors”.
In the case of `O=C(O[C@@H]1Cc2c(O)cc(O)cc2O[C@@H]1c1cc(O)c(O)c(O)c1)c1cc(O)c(O)c(O)c1` [EGCG, epigallocatechin gallate], in series [3], the antioxidant activity entry is given as “potent antioxidant activity”. The “inhibition” value in series [2] was “potent specific inhibitors”.
Regarding `CC1=C(/C=C/C(C)=C/C=C/C(C)=C/C=C/C=C(C)/C=C/C=C(C)/C=C/C2=C(C)C(=O)[C@@H](O)CC2(C)C)C(C)(C)C[C@H](O)C1=O` [astaxanthin], in series [4], the “NF-κβ activation / nuclear translocation” value is “decreased NF-κβ activation”.
For `CC(C)=C[C@H]1C[C@](O)([C@H]2CC[C@]3(C)[C@H]2CCC2[C@@]4(C)CC[C@H](O[C@@H]5OC[C@@H](O)[C@H](O[C@@H]6O[C@H](CO)[C@@H](O)[C@H](O)[C@H]6O)[C@@H]5O[C@H]5O[C@H](C)[C@@H](O)[C@H](O)[C@@H]5O)C(C)(C)C4CC[C@]23C)[C@H](O)O1` (stereo partly shown) [phanoside], the insulin-releasing activity result in series [5] is “potent insulin-releasing activity”.
For the compound `O=C(OC[C@H]1O[C@@H](OC(=O)c2cc(O)c(O)c(OC(=O)c3cc(O)c(O)c(O)c3)c2)[C@H](OC(=O)c2cc(O)c(O)c(OC(=O)c3cc(O)c(O)c(O)c3)c2)[C@@H](OC(=O)c2cc(O)c(O)c(OC(=O)c3cc(O)c(O)c(O)c3)c2)[C@@H]1OC(=O)c1cc(O)c(O)c(OC(=O)c2cc(O)c(O)c(O)c2)c1)c1cc(O)c(O)c(OC(=O)c2cc(O)c(O)c(O)c2)c1` [tannic acid], in series [2], the “inhibition” value is “potent specific inhibitors”.
